Measurements as given in EP4603105A1, “PHARMACEUTICAL COMPOSITION CONTAINING CYCLIC COMPOUND HAVING SELECTIVE KRAS INHIBITORY EFFECT AGAINST HRAS AND NRAS” (CHUGAI SEIYAKU KABUSHIKI KAISHA, priority 2022, dated 2024).
Read-outs that look alike come from different tables or passages of the source.

Key:
[1] = molecular target: GDP-bound KRAS wild-type protein (Homo sapiens, UniProt P01116); experiment: Binding to KRAS by surface plasmon resonance (SPR), dissociation constant KD
How it was run: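 Biotinylated GDP-bound RAS was captured at about 100–300 RU. Running buffer: HBS pH 7.4, 10 mM MgCl2, 10 µM GDP, 1 mM DTT, 0.01% Tween 20, 4% DMSO.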

HRAS wild-type protein = HRAS wild-type protein (Homo sapiens, UniProt P01112); experiment: Binding to HRAS by surface plasmon resonance (SPR), KD and KD ratio to KRAS
How it was run: (§1)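 Affinity is measured by surface plasmon resonance at 30°C against captured, GDP-loaded RAS carrying a biotinylated Avi tag. Compounds are titrated by single-cycle kinetics, and KD comes from a 1:1 fit.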

[2] = tested on: human lung cancer strain NCI-H441; experiment: NCI-H441 cell proliferation inhibitory activity (CellTiter-Glo, 4 days); type: cell-based; conditions: read-out: NCl-H441 IC50
How it was run: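 Readout: […] after the ATP-based reagent. Compound: serial dilutions in dimethyl sulfoxide.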

[3] = molecular target: GDP-bound NRAS wild-type protein (Homo sapiens, UniProt P01111); experiment: Binding to NRAS by surface plasmon resonance (SPR), KD and KD ratio to KRAS
How it was run: as §1

[4] = ratio of KD for HRAS wild-type protein to KD for KRAS
[5] = ratio of KD for GDP-bound NRAS wild-type protein to KD for KRAS

HRAS wild-type protein, sequence (P01112 whole entry): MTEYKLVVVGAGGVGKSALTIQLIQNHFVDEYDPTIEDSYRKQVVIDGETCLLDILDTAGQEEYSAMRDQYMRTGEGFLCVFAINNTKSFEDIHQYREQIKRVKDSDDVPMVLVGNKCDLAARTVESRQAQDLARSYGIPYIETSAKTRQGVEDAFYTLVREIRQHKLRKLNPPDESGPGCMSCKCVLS
GDP-bound KRAS wild-type protein, sequence (P01116 1-188 isoform P01116-2): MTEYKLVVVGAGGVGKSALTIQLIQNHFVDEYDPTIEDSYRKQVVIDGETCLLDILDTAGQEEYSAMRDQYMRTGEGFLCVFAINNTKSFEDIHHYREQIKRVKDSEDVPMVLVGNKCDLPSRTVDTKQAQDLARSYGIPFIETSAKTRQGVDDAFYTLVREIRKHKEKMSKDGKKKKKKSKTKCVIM
GDP-bound NRAS wild-type protein, sequence (P01111 whole entry): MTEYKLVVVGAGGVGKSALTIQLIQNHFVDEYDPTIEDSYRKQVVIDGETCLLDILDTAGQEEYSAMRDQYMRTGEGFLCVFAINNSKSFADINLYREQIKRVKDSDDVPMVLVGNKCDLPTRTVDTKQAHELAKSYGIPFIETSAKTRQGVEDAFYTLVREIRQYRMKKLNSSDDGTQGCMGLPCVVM

SMILES | Kd ([1]; Single Cycle Kinetics) [nM] | IC50 ([2]; NCI-H441 cells, 4 days) [nM] | Kd ([1]; Single Cycle Kinetics, 1:1 binding model) [nM] | IC50 ([2]; 50% proliferation inhibitory concentration, four days) [nM] | Kd ([1]; 1:1 binding model) [nM] | HRAS /KRAS (HRAS wild-type protein; [4]) | NRAS /KRAS [3, 5] | HRAS /KRAS (HRAS wild-type protein; ratio of KD with respect to HRAS wild-type protein to KD with respect to KRAS) | NRAS /KRAS ([3]; ratio of KD with respect to GDP-bound NRAS wild-type protein to KD with respect to KRAS)
CCC[C@H]1C(=O)N[C@@H](C2CCCC2)C(=O)N(C)CC(=O)N(C)[C@H]2C/C=C\CCN(C2=O)[C@@H](Cc2ccc(C(F)(F)F)cc2)C(=O)N(C)CC(=O)N[C@@H](CCc2ccc(C(F)(F)F)c(Cl)c2)C(=O)N2CC3(CC3)C[C@H]2C(=O)N(C)C2(CCC2)C(=O)N(C)[C@@H]([C@@H](C)CC)C(=O)N(C)[C@H](C(=O)N(C)C)CC(=O)N1C [PP3323] | 1.3 | 9.2 |  |  |  | A (a compound having 10 or more and less than 20 is denoted as A) | AA (a compound having 20 or more is denoted as AA) |  | 
CCO[C@@H]1C[C@H]2C(=O)NC3(CCCC3)C(=O)N(C)[C@@H](C3CCCC3)C(=O)N(C)[C@H](C(=O)N3CCOCC3)CC(=O)N(C)[C@@H](CC)C(=O)N[C@@H]([C@@H](C)CC)C(=O)N(C)CC(=O)N(C)[C@H]3C[C@@H](C)[C@@H](C)CN(C3=O)[C@@H](Cc3ccc(C(F)(F)F)cc3)C(=O)N(C)CC(=O)N[C@@H](CCc3ccc(C(F)(F)F)c(Cl)c3)C(=O)N2C1 [PP1359] |  |  | 0.068 | 3.2 |  |  |  | B (a compound having 3 or more and less than 10 is denoted as B) | A (a compound having 10 or more and less than 20 is denoted as A)
CC[C@H](C)[C@@H]1NC(=O)[C@H](COC)N(C)C(=O)C[C@@H](C(=O)N(C)CC)N(C)C(=O)[C@H](C2CCCC2)N(C)C(=O)C2(CC(C)(C)C2)NC(=O)[C@@H]2C[C@H](C)CN2C(=O)[C@H](CCc2ccc(C(F)(F)F)c(Cl)c2)NC(=O)CN(C)C(=O)[C@H](Cc2ccc(C)cc2)N2CC/C=C\C[C@@H](C2=O)N(C)C(=O)CN(C)C1=O [PP2506] |  | 10.6 |  |  | 0.13 | A (a compound having 10 or more and less than 20 is denoted as A) | A (a compound having 10 or more and less than 20 is denoted as A) |  | 
CCC[C@H]1C(=O)N[C@@H]([C@@H](C)CC)C(=O)N(C)CC(=O)N(C)[C@H]2C/C=C\CCN(C2=O)[C@@H](Cc2ccc(C(F)(F)F)cc2)C(=O)N(C)CC(=O)N[C@@H](CCc2cc(F)c(C(F)(F)F)c(F)c2)C(=O)N2CC3(CC3)C[C@H]2C(=O)NC2(CCC2)C(=O)N(C)[C@@H]([C@@H](C)CC)C(=O)N(C)[C@H](C(=O)N(C)C)CC(=O)N1C [PP3404] | 0.2 | 12.8 |  |  |  | A (a compound having 10 or more and less than 20 is denoted as A) | AA (a compound having 20 or more is denoted as AA) |  | 
CC[C@H](C)[C@@H]1NC(=O)[C@H](CC(C)C)N(C)C(=O)C[C@@H](C(=O)N(C)C)N(C)C(=O)[C@H](C2CCCC2)N(C)C(=O)C2(CC(C)(C)C2)NC(=O)[C@@H]2C[C@H](C)CN2C(=O)[C@H](CCc2ccc(C(F)(F)F)c(OC)c2)NC(=O)CN(C)C(=O)[C@H](Cc2ccc(C)cc2)N2CC/C=C\C[C@@H](C2=O)N(C)C(=O)[C@@H]2CCCN2C1=O [PP2409] |  | 31.9 |  |  | 0.48 | B (a compound having 3 or more and less than 10 is denoted as B) | A (a compound having 10 or more and less than 20 is denoted as A) |  | 
CCC[C@H]1C(=O)N[C@@H]([C@@H](C)CC)C(=O)N(C)CC(=O)N(C)[C@H]2C/C=C\CCN(C2=O)[C@@H](Cc2ccc(C(F)F)cc2)C(=O)N(C)CC(=O)N[C@@H](CCc2ccc(Cl)c(Cl)c2)C(=O)N2C[C@H](OC(C)C)C[C@H]2C(=O)NC2(CC(C)(C)C2)C(=O)N(C)[C@@H](C(CC)CC)C(=O)N(C)[C@H](C(=O)N(C)C)CC(=O)N1C [PP2535] |  | 26.8 |  |  | 0.54 | A (a compound having 10 or more and less than 20 is denoted as A) | AA (a compound having 20 or more is denoted as AA) |  | 

The remaining compounds from weak to strong by IC50 ([2]; NCI-H441 cells, 4 days), led by results:

Kd ([1]; Single Cycle Kinetics) [nM] | IC50 ([2]; NCI-H441 cells, 4 days) [nM] | Kd ([1]; Single Cycle Kinetics, 1:1 binding model) [nM] | IC50 ([2]; 50% proliferation inhibitory concentration, four days) [nM] | Kd ([1]; 1:1 binding model) [nM] | SMILES | HRAS /KRAS (HRAS wild-type protein; [4]) | NRAS /KRAS [3, 5] | HRAS /KRAS (HRAS wild-type protein; ratio of KD with respect to HRAS wild-type protein to KD with respect to KRAS) | NRAS /KRAS ([3]; ratio of KD with respect to GDP-bound NRAS wild-type protein to KD with respect to KRAS)
1.4 | 58.5 |  |  |  | CCCN(C)C(=O)[C@@H]1CC(=O)N(C)[C@@H](CC(C)C)C(=O)N[C@@H]([C@@H](C)CC)C(=O)N2CCC[C@H]2C(=O)N(C)[C@H]2C/C=C\CCN(C2=O)[C@@H](Cc2ccc(C(F)(F)F)cc2)C(=O)N(C)CC(=O)N[C@@H](CCc2cc(F)c(C(F)(F)F)c(F)c2)C(=O)N2C[C@H](OCC)C[C@H]2C(=O)N[C@]2(C[C@@H](OC)C2)C(=O)N(C)[C@@H](C2CCCC2)C(=O)N1C [PP3354] | A (a compound having 10 or more and less than 20 is denoted as A) | A (a compound having 10 or more and less than 20 is denoted as A) |  | 
 | 25.2 |  |  | 0.48 | CCO[C@@H]1C[C@H]2C(=O)NC3(CC(C)(C)C3)C(=O)N(C)[C@@H](C3CCCC3)C(=O)N(C)[C@H](C(=O)N3CCCCC3)CC(=O)N(C)[C@@H](COC)C(=O)N[C@@H]([C@@H](C)CC)C(=O)N(C)CC(=O)N(C)[C@H]3C/C=C\CCN(C3=O)[C@@H](Cc3ccc(C(F)(F)F)cc3)C(=O)N(C)CC(=O)N[C@@H](CCc3ccc(Cl)c(Cl)c3)C(=O)N2C1 [PP2670] | A (a compound having 10 or more and less than 20 is denoted as A) | AA (a compound having 20 or more is denoted as AA) |  | 
0.26 | 17.6 |  |  |  | CCC[C@H]1C(=O)N[C@@H]([C@@H](C)CC)C(=O)N2CCC[C@H]2C(=O)N(C)[C@H]2C/C=C\CCN(C2=O)[C@@H](Cc2ccc(C(F)(F)F)cc2)C(=O)N(C)CC(=O)N[C@@H](CCc2ccc(C(F)(F)F)c(Cl)c2)C(=O)N2CC[C@H](OC)[C@H]2C(=O)N(C)C2(CCC2)C(=O)N(C)[C@@H](C2CCCC2)C(=O)N(C)[C@H](C(=O)N(C)C)CC(=O)N1C [PP3289] | A (a compound having 10 or more and less than 20 is denoted as A) | A (a compound having 10 or more and less than 20 is denoted as A) |  | 
 | 9.8 |  |  | 0.33 | CCO[C@H](C)[C@@H]1NC(=O)[C@H](CC(C)C)N(C)C(=O)C[C@@H](C(=O)N(C)CC)N(C)C(=O)[C@H](C2CCCC2)N(C)C(=O)C2(CC(C)(C)C2)NC(=O)[C@@H]2C[C@H](C)CN2C(=O)[C@H](CCc2cc(F)c(C(F)(F)F)c(F)c2)NC(=O)CN(C)C(=O)[C@H](Cc2ccc(C)cc2)N2CC/C=C\C[C@@H](C2=O)N(C)C(=O)CN(C)C1=O [PP2414] | A (a compound having 10 or more and less than 20 is denoted as A) | A (a compound having 10 or more and less than 20 is denoted as A) |  | 
0.22 | 5.3 |  |  |  | CCC[C@H]1C(=O)N[C@@H]([C@@H](C)CC)C(=O)N2CCC[C@H]2C(=O)N(C)[C@H]2C/C=C\CCN(C2=O)[C@@H](Cc2ccc(C)cc2)C(=O)N(C)CC(=O)N[C@@H](CCc2ccc(C(F)(F)F)c(OC)c2)C(=O)N2CC[C@H](OC)[C@H]2C(=O)N(C)C2(CCC2)C(=O)N(C)[C@@H](C2CCCC2)C(=O)N(C)[C@H](C(=O)N(C)C)CC(=O)N1C [PP3247] | B (a compound having 3 or more and less than 10 is denoted as B) | A (a compound having 10 or more and less than 20 is denoted as A) |  | 
0.037 | 4.3 |  |  |  | CCC[C@H]1C(=O)N[C@@H]([C@@H](C)CC)C(=O)N(C)CC(=O)N(C)[C@H]2C/C=C\CCN(C2=O)[C@@H](Cc2ccc(C(F)(F)F)cc2)C(=O)N(C)CC(=O)N[C@@H](CCc2ccc(C(F)(F)F)c(OC)c2)C(=O)N2CC3(CC3)C[C@H]2C(=O)NC2(CCC2)C(=O)N(C)[C@@H](CC(C)(C)C)C(=O)N(C)[C@H](C(=O)N(C)C)CC(=O)N1C [PP3412] | B (a compound having 3 or more and less than 10 is denoted as B) | A (a compound having 10 or more and less than 20 is denoted as A) |  | 
